Experimental data published in PubChem BioAssay (NCI).
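96-well plates; 48 h exposure; 5 concentrations. Endpoints by linear interpolation between flanking doses. Not reached: highest tested concentration assigned. TGI is the concentration that stops growth completely.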

Assays:
Test in all cases: NCI tumour cell line growth inhibition, 48 h
DU-145 prostate = system: DU-145 prostate
MCF7 breast = system: MCF7 breast
OVCAR-5 ovarian = system: OVCAR-5 ovarian
SNB-19 CNS = system: SNB-19 CNS
UO-31 renal = system: UO-31 renal
RPMI-8226 leukemia = system: RPMI-8226 leukemia
786-0 renal = system: 786-0 renal
HCC-2998 colon = system: HCC-2998 colon
T-47D breast = system: T-47D breast
MDA-MB-231 breast = system: MDA-MB-231 breast
SN12C renal = system: SN12C renal
A498 renal = system: A498 renal
COLO 205 colon = system: COLO 205 colon
SR leukemia = system: SR leukemia
HOP-62 NSCLC = system: HOP-62 NSCLC
MALME-3M melanoma = system: MALME-3M melanoma
SK-MEL-2 melanoma = system: SK-MEL-2 melanoma
HS 578T breast = system: HS 578T breast
NCI-H522 lung = system: NCI-H522 lung
HT29 colon = system: HT29 colon
NCI/ADR-RES ovarian = system: NCI/ADR-RES ovarian
RXF 393 renal = system: RXF 393 renal
U251 CNS = system: U251 CNS
MOLT-4 leukemia = system: MOLT-4 leukemia
LOX IMVI melanoma = system: LOX IMVI melanoma
CCRF-CEM leukemia = system: CCRF-CEM leukemia
UACC-257 melanoma = system: UACC-257 melanoma
MDA-N = system: MDA-N
EKVX NSCLC = system: EKVX NSCLC
NCI-H23 lung = system: NCI-H23 lung
TK-10 renal = system: TK-10 renal
IGROV1 ovarian = system: IGROV1 ovarian
MDA-MB-435 = system: MDA-MB-435
SF-295 CNS = system: SF-295 CNS
OVCAR-4 ovarian = system: OVCAR-4 ovarian
SNB-75 CNS = system: SNB-75 CNS
SF-268 CNS = system: SF-268 CNS
SW-620 colon = system: SW-620 colon
SF-539 CNS = system: SF-539 CNS
HCT-15 colon = system: HCT-15 colon
OVCAR-8 ovarian = system: OVCAR-8 ovarian
SK-MEL-5 melanoma = system: SK-MEL-5 melanoma
K-562 leukemia = system: K-562 leukemia
UACC-62 melanoma = system: UACC-62 melanoma
A549 NSCLC = system: A549 NSCLC
OVCAR-3 ovarian = system: OVCAR-3 ovarian
HOP-92 NSCLC = system: HOP-92 NSCLC
NCI-H460 lung = system: NCI-H460 lung
ACHN renal = system: ACHN renal
SK-OV-3 ovarian = system: SK-OV-3 ovarian
PC-3 prostate = system: PC-3 prostate
CAKI-1 renal = system: CAKI-1 renal
HL-60(TB) leukemia = system: HL-60(TB) leukemia
M14 melanoma = system: M14 melanoma
KM12 colon = system: KM12 colon
SK-MEL-28 melanoma = system: SK-MEL-28 melanoma
NCI-H226 lung = system: NCI-H226 lung
HCT-116 colon = system: HCT-116 colon

SMILES: CC1=C2C(=O)c3ccccc3C(=O)[C@H]2C[C@@H](N2CCCC2=O)O1
- TGI (DU-145 prostate): 54.7 µM
- TGI (MCF7 breast): 29.9 µM
- TGI (OVCAR-5 ovarian): 42.5 µM
- TGI (SNB-19 CNS): > 100 µM
- TGI (UO-31 renal): > 100 µM
- TGI (RPMI-8226 leukemia): 49.5 µM
- TGI (786-0 renal): 65.5 µM
- TGI (HCC-2998 colon): > 100 µM
- TGI (T-47D breast): 53.5 µM
- TGI (MDA-MB-231 breast): > 100 µM
- TGI (SN12C renal): > 100 µM
- TGI (A498 renal): > 100 µM
- TGI (COLO 205 colon): > 100 µM
- TGI (SR leukemia): 87.7 µM
- TGI (HOP-62 NSCLC): > 100 µM
- TGI (MALME-3M melanoma): 31.8 µM
- TGI (SK-MEL-2 melanoma): > 100 µM
- TGI (HS 578T breast): > 100 µM
- TGI (NCI-H522 lung): > 100 µM
- TGI (HT29 colon): > 100 µM
- TGI (NCI/ADR-RES ovarian): 97 µM
- TGI (RXF 393 renal): 45.3 µM
- TGI (U251 CNS): 76.4 µM
- TGI (MOLT-4 leukemia): > 100 µM
- TGI (LOX IMVI melanoma): 37.8 µM
- TGI (CCRF-CEM leukemia): 81.8 µM
- TGI (UACC-257 melanoma): > 100 µM
- TGI (MDA-N): 30 µM
- TGI (EKVX NSCLC): > 100 µM
- TGI (NCI-H23 lung): 57.1 µM
- TGI (TK-10 renal): > 100 µM
- TGI (IGROV1 ovarian): > 100 µM
- TGI (MDA-MB-435): 33.1 µM
- TGI (SF-295 CNS): > 100 µM
- TGI (OVCAR-4 ovarian): 38.2 µM
- TGI (SNB-75 CNS): 61 µM
- TGI (SF-268 CNS): > 100 µM
- TGI (SW-620 colon): 66.9 µM
- TGI (SF-539 CNS): 49.1 µM
- TGI (HCT-15 colon): > 100 µM
- TGI (OVCAR-8 ovarian): > 100 µM
- TGI (SK-MEL-5 melanoma): 32.7 µM
- TGI (K-562 leukemia): > 100 µM
- TGI (UACC-62 melanoma): > 100 µM
- TGI (A549 NSCLC): > 100 µM
- TGI (OVCAR-3 ovarian): 63.9 µM
- TGI (HOP-92 NSCLC): 61.7 µM
- TGI (NCI-H460 lung): > 100 µM
- TGI (ACHN renal): > 100 µM
- TGI (SK-OV-3 ovarian): > 100 µM
- TGI (PC-3 prostate): > 100 µM
- TGI (CAKI-1 renal): > 100 µM
- TGI (HL-60(TB) leukemia): > 100 µM
- TGI (M14 melanoma): 34.9 µM
- TGI (KM12 colon): > 100 µM
- TGI (SK-MEL-28 melanoma): > 100 µM

SMILES: CCCNC(=S)N=Nc1c(O)[nH]c2ccccc12
- TGI (DU-145 prostate): > 100 µM
- TGI (MCF7 breast): > 100 µM
- TGI (NCI-H226 lung): > 100 µM
- TGI (OVCAR-5 ovarian): > 100 µM
- TGI (SNB-19 CNS): > 100 µM
- TGI (UO-31 renal): > 100 µM
- TGI (RPMI-8226 leukemia): > 100 µM
- TGI (786-0 renal): > 100 µM
- TGI (HCC-2998 colon): > 100 µM
- TGI (T-47D breast): > 100 µM
- TGI (MDA-MB-231 breast): > 100 µM
- TGI (SN12C renal): > 100 µM
- TGI (A498 renal): > 100 µM
- TGI (COLO 205 colon): > 100 µM
- TGI (SR leukemia): > 100 µM
- TGI (HOP-62 NSCLC): > 100 µM
- TGI (MALME-3M melanoma): > 100 µM
- TGI (SK-MEL-2 melanoma): > 100 µM
- TGI (HS 578T breast): > 100 µM
- TGI (NCI-H522 lung): > 100 µM
- TGI (HT29 colon): > 100 µM
- TGI (HCT-116 colon): > 100 µM
- TGI (NCI/ADR-RES ovarian): > 100 µM
- TGI (RXF 393 renal): > 100 µM
- TGI (U251 CNS): > 100 µM
- TGI (MOLT-4 leukemia): > 100 µM
- TGI (LOX IMVI melanoma): > 100 µM
- TGI (CCRF-CEM leukemia): > 100 µM
- TGI (UACC-257 melanoma): > 100 µM
- TGI (MDA-N): > 100 µM
- TGI (EKVX NSCLC): > 100 µM
- TGI (NCI-H23 lung): > 100 µM
- TGI (TK-10 renal): > 100 µM
- TGI (IGROV1 ovarian): > 100 µM
- TGI (MDA-MB-435): > 100 µM
- TGI (SF-295 CNS): > 100 µM
- TGI (OVCAR-4 ovarian): > 100 µM
- TGI (SNB-75 CNS): > 100 µM
- TGI (SF-268 CNS): > 100 µM
- TGI (SW-620 colon): > 100 µM
- TGI (SF-539 CNS): > 100 µM
- TGI (HCT-15 colon): > 100 µM
- TGI (OVCAR-8 ovarian): > 100 µM
- TGI (SK-MEL-5 melanoma): > 100 µM
- TGI (K-562 leukemia): > 100 µM
- TGI (UACC-62 melanoma): > 100 µM
- TGI (A549 NSCLC): > 100 µM
- TGI (OVCAR-3 ovarian): > 100 µM
- TGI (HOP-92 NSCLC): > 100 µM
- TGI (NCI-H460 lung): > 100 µM
- TGI (ACHN renal): > 100 µM
- TGI (SK-OV-3 ovarian): > 100 µM
- TGI (PC-3 prostate): > 100 µM
- TGI (CAKI-1 renal): > 100 µM
- TGI (HL-60(TB) leukemia): > 100 µM
- TGI (M14 melanoma): > 100 µM
- TGI (KM12 colon): > 100 µM
- TGI (SK-MEL-28 melanoma): > 100 µM
